From US20060116390A1, “Hepatitis c virus inhibitors” (priority 2003, published 2006) come the findings set out here.

Like-named read-outs stand apart in the source and are kept apart here. Some results are limits rather than exact numbers.

The assay deals with HCV proteins in Rep5.1 cells (replicon cell line). Nature of the assay: Inhibitory activity of HCV: cell-based ELISA in replicon cell line Rep5.1 (decrease of HCV proteins). Details: species or system hepatitis C virus. How it is done: In order to, screen and evaluate the anti-HCV therapeutic agents in cell level, the following experiments are carried out using a replicon cell line, Rep5.1 [Lohmann, et al., Replication of subgenomic hepatitis C virus RNAs in a hepatoma cell line. Science 285:110-113 (1999)].
Rep5.1 cells, the replicon cell line, are cultured in DMEM-10 containing 500 μg/ml of G418. The Rep5.1 cells in log phase are suspended by trypsin treatment, and 5000 cells are distributed to each well of a 96-well plate. After 4 hours when the cells are attached to the plate, the serially diluted drug is added to each well. After 48 hours, a part of the treated cells are observed by microscope, and MTT assay is carried out to evaluate the drug toxicity. The cytotoxicity is estimated in percentage based on the control containing no drug. After 72 hours, the remaining cells are fixed by methanol/acetone (50/50, v/v), and the decrease of HCV proteins is measured by using HCV antibody. The extent of decrease is estimated in percentage based on the control containing no drug, and the concentration of drug at which 50% of proteins is decreased is determined to be IC50. The compounds showing activity via this procedure are validated by Western blotting. In order to find out whether the decrease of HCV protein is related to the decrease of replicon RNA, Rep5.1 cell is treated with some selected drugs for 72 hours, RNA is purified, dot blotted, and hybridized with isotope labelled nucleic acid to determine the amounts of actin mRNA and replicon RNA, and finally the amount of RNA is compared.
Plasma samples from 300 persons positive to the hepatitis C antibody test were screened by antibody diagnosis kit produced by LG life Sciences Ltd. (LG HCD3.0 TMB) to select 40 plasma samples having high titer. Replicon cell line and Huh-7 cell line each were cultured in a 96-well cell culture plate, fixed by methanol/acetone (1:1) mixture, and blocked by 3% skimmed milk. The 40 plasma sanples selected above were 100-fold diluted and aided thereto, and the bound antibodies were probed by anti-Human goat antibody (Sigma) to which Horse Radish Peroxidase is attached. As a result, 12 plasma samples having low specificity to Huh-7 cell line, but high specificity to replicon cell line were obtained. These plasma samples were used in the following cell-based ELISA.
Rep5.1 cells were cultured in DMEM-10 containing 500 μg/ml of G418. The Rep5.1 cells in log phase were suspended by trypsin treatment, and 5000 cells were distributed to each well of a 96-well pate. After 4 hours for which the cells were attached to the plate, the serially diluted drug was added to each well. After 72 hours, the cells were fixed by methanol/acetone (50/50, v/v), and the decrease of HCV proteins was measured by using HCV antibody obtained as above. The extent of decrease was estimated in percentage based on the control containing no drug, and the concentration of drug at which 50% of proteins was decreased was determined to be IC50.

Where [1] appears, read: Hepatitis C virus, 72 h, Rep5.1 cells, 72 hours with drug, concentration at which 50% of HCV proteins was decreased, Table 2, read-out: IC50.
Where [2] appears, read: Hepatitis C virus, 72 h, Rep5.1 cells, 72 hours with drug, decrease of HCV proteins measured by HCV antibody, Table 1, read-out: Level (IC50 values classified).

Broadly, the IC50 is the concentration at which inhibition is half-maximal. Take `CCN(c1ccc(CCOC(=O)C2=C(C)NC(=S)NC2CO)cc1[N+](=O)[O-])C1CC1` (stereo not shown) [94″, 4-Hydroxymethyl-6-methyl-2-thioxo-1,2,3,4-tetrahydro-pyrimidine-5-carboxylic acid 2-[4-(cyclopropyl-ethyl-amino)-3-nitro-phenyl]-ethyl ester]: the IC50 by setting is: under setting [1], 800 nM; under setting [2], < 1000 nM.
Taken in the same sequence, the figures for `CC1=C(C(=O)OCc2ccc(SC(F)(F)F)cc2)CNC(=S)N1` [Compound 199, 6-methyl-2-thioxo-1,2,3,4-tetrahydro-pyrimidine-5-carboxylic acid 4-trifluoromethylsulfanyl-benzyl ester] were < 400 nM and < 1000 nM.
Taken in the same sequence, the figures for `COc1ccc(Cl)cc1COC(=O)C1=C(C)NC(=S)NC1CF` (stereo not shown) [36′, 4-fluoromethyl-6-methyl-2-thioxo-1,2,3,4-tetrahydro-pyrimidine-5-carboxylic acid 5-chloro-2-methoxy-benzyl ester] were 1700 nM and 1000 to 10000 nM.
Turning to `CC1=C(C(=O)OCCc2ccc(C)cc2)C(CO)NC(=S)N1` (stereo not shown) [63″, 4-hydroxymethyl-6-methyl-2-thioxo-1,2,3,4-tetrahydro-pyrimidine-5-carboxylic acid 2-p-tolyl-ethyl ester], the IC50 is 1600 nM under setting [1] and 1000 to 10000 nM under setting [2].
On the same counts, the results for `COc1cc(COC(=O)C2=C(C)NC(=S)NC2)ccc1OCc1ccccc1` [Compound 58, 6-methyl-2-thioxo-1,2,3,4-tetrahydro-pyrimidine-5-carboxylic acid 4-benzyloxy-3-methoxy-benzyl ester] are < 500 nM and < 1000 nM.
As to `CC1=C(C(=O)OCc2nc3ccccc3s2)CNC(=S)N1` [Compound 226, 6-methyl-2-thioxo-1,2,3,4-tetrahydro-pyrimidine-5-carboxylic acid benzothiazol-2-ylmethyl ester], the IC50 by setting is: under setting [1], 2200 nM; under setting [2], 1000 to 10000 nM.
In the case of `COc1ccc(COC(=O)C2=C(C)NC(=S)NC2)c(OC)c1C` [Compound 137, 6-methyl-2-thioxo-1,2,3,4-tetrahydro-pyrimidine-5-carboxylic acid 2,4-dimethoxy-3-methyl-benzyl ester], the IC50 reads like this: under setting [1], 10000 nM; under setting [2], 1000 to 10000 nM.
`O=C(OCc1ccccc1)C1=C(C(F)(F)F)NC(=S)NC1` [Compound 146, 2-thioxo-6-trifluoromethyl-1,2,3,4-tetrahydro-pyrimidine-5-carboxylic acid benzyl ester]: the concentration for half-maximal inhibition (IC50) is > 100000 nM under setting [1] and > 20000 nM under setting [2].
Taken in the same sequence, the figures for `CCCN(c1ccc(CCOC(=O)C2=C(C)NC(=S)NC2CO)cc1[N+](=O)[O-])C1CC1` (stereo not shown) [95″, 4-Hydroxymethyl-6-methyl-2-thioxo-1,2,3,4-tetrahydro-pyrimidine-5-carboxylic acid 2-[4-(cyclopropyl-propyl-amino)-3-nitro-phenyl]-ethyl ester] were 600 nM and < 1000 nM.
On to `CC1=C(C(=O)OCc2cc3c(C)nn(C)c3s2)CNC(=S)N1` [Compound 223, 6-methyl-2-thioxo-1,2,3,4-tetrahydro-pyrimidine-5-carboxylic acid 1,3-dimethyl-1H-thieno[2,3-c]pyrazol-5-ylmethyl ester], for which the IC50 by setting is: under setting [1], 6000 nM; under setting [2], 1000 to 10000 nM.
Regarding `CC1=C(C(=O)OCCc2ccc(C)cc2)CNC(=S)N1` [Compound 173, 6-methyl-2-thioxo-1,2,3,4-tetrahydro-pyrimidine-5-carboxylic acid 2-p-tolyl-ethyl ester], the IC50 under setting [1] is < 400 nM.
For `CC(C)=CCCC(C)=CCOC(=O)C1=C(C)NC(=S)NC1` [Compound 56, 6-methyl-2-thioxo-1,2,3,4-tetrahydro-pyrimidine-5-carboxylic acid 3,7-dimethyl-octa-2,6-dienyl ester], the IC50 under setting [1] was < 500 nM and the IC50 under setting [2] is < 1000 nM.
Taken in the same sequence, the figures for `CC1=C(C(=O)OCCc2cccc([N+](=O)[O-])c2)C(COC(=O)c2ccc(C(=O)O)cc2)NC(=S)N1` (stereo not shown) [90″, terephthalic acid mono-{6-methyl-5-[2-(3-nitro-phenyl)-ethoxycarbonyl]-2-thioxo-1,2,3,4-tetrahydro-pyrimidin-4-ylmethyl}ester] were 6900 nM and 1000 to 10000 nM.
For the compound `COC(=O)c1ccc(COC(=O)C2=C(C)NC(=S)NC2)cc1` [Compound 11, 6-methyl-2-thioxo-1,2,3,4-tetrahydro-pyrimidine-5-carboxylic acid 4-methoxycarbonyl-benzyl ester], the 50% inhibitory concentration (IC50) runs as follows: under setting [1], > 100000 nM; under setting [2], > 20000 nM.
Consider `CC1=C(C(=O)OCC2CC3CCC2C3)CNC(=S)N1` (stereo not shown) [Compound 151, 6-methyl-2-thioxo-1,2,3,4-tetrahydro-pyrimidine-5-carboxylic acid bicyclo[2.2.1]hept-2-ylmethyl ester], for which the IC50 runs as follows: (Hepatitis C virus, 72 h) < 400 nM; (Hepatitis C virus, 72 h, read-out: Level (IC50 values classified)) < 1000 nM.
As to `COc1ccc(COC(=O)C2=C(C)NC(=S)NC2)cc1OC` [Compound 40, 6-methyl-2-thioxo-1,2,3,4-tetrahydro-pyrimidine-5-carboxylic acid 3,4-dimethoxy-benzyl ester], the IC50 by setting is: under setting [1], 92000 nM; under setting [2], > 20000 nM.
On to `CCOC(=O)CCCCCOC(=O)C1=C(C)NC(=S)NC1` [Compound 197, 6-methyl-2-thioxo-1,2,3,4-tetrahydro-pyrimidine-5-carboxylic acid 5-ethoxycarbonyl-pentyl ester], for which the IC50 is > 100000 nM under setting [1] and > 20000 nM under setting [2].
As for `COC(=O)NCCOC(=O)OCC1NC(=S)NC(C)=C1C(=O)OCCc1cccc(Cl)c1` (stereo not shown) [80″, 4-(2-methoxycarbonylnamino-ethoxycarbonyloxymethyl)-6-methyl-2-thioxo-1,2,3,4-tetrahydro-pyrimidine-5-carboxylic acid 2-(3-chloro-phenyl)-ethyl ester], the IC50 (Rep5.1 cells, 72 hours with drug, concentration at which 50% of HCV proteins was decreased, Table 2, read-out: IC50) worked out at 1100 nM.
Turning to `CC1=C(C(=O)OCCCc2ccc(F)cc2)C(CF)NC(=S)N1` (stereo not shown) [56′, 4-fluoromethyl-6-methyl-2-thioxo-1,2,3,4-tetrahydro-pyrimidine-5-carboxylic acid 3-(4-fluorophenyl)-propyl ester], the IC50 by setting is: under setting [1], 2400 nM; under setting [2], 1000 to 10000 nM.
Consider `CC1=C(C(=O)OCCc2ccc(N3CCCC3)c([N+](=O)[O-])c2)C(CO)NC(=S)N1` (stereo not shown) [99″, 4-Hydroxymethyl-6-methyl-2-thioxo-1,2,3,4-tetrahydro-pyrimidine-5-carboxylic acid 2-(3-nitro-4-pyrrolidin-1-yl-phenyl)-ethyl ester], for which the concentration for half-maximal inhibition (IC50) by setting is: under setting [1], 1000 nM; under setting [2], < 1000 nM.
On the same counts, the results for `CCc1ccc(COC(=O)C2=C(C)NC(=S)NC2)s1` [Compound 205, 6-methyl-2-thioxo-1,2,3,4-tetrahydro-pyrimidine-5-carboxylic acid 5-ethyl-thiophen-2-ylmethyl ester] are 1800 nM and 1000 to 10000 nM.
On the same counts, the results for `COc1ccccc1CCCOC(=O)C1=C(C)NC(=S)NC1` [Compound 104, 6-methyl-2-thioxo-1,2,3,4-tetrahydro-pyrimidine-5-carboxylic acid 3-(2-methoxy-phenyl)-propyl ester] are < 400 nM and < 1000 nM.
Turning to `CC1=C(C(=O)OCCCc2ccsc2)C(C(C)O)NC(=S)N1` (stereo not shown) [15″, 4-(1-hydroxy-ethyl)-6-methyl-2-thioxo-1,2,3,4-tetrahydro-pyrimidine-5-carboxylic acid 3-thiophen-3-yl-propyl ester], the IC50 was 55000 nM under setting [1] and > 20000 nM under setting [2].
Regarding `COc1ccc(COC(=O)C2=C(C)NC(=S)NC2CF)cc1Cl` (stereo not shown) [82′, 4-fluoromethyl-6-methyl-2-thioxo-1,2,3,4-tetrahydro-pyrimidine-5-carboxylic acid 3-chloro-4-methoxy-benzyl ester], the IC50 under setting [1] was determined as 2500 nM and the IC50 under setting [2] is 1000 to 10000 nM.
